Source: PubChem BioAssay (NCI)
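Each compound was tested at five concentrations against cells in 96-well plates for 48 hours. GI50 is the concentration that inhibits growth by half. TGI denotes the concentration required for complete inhibition of growth.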

Tests used:
Experiment in all cases: NCI tumour cell line growth inhibition, 48 h
786-0 renal = tested on: 786-0 renal
A498 renal = tested on: A498 renal
A549 NSCLC = tested on: A549 NSCLC
ACHN renal = tested on: ACHN renal
CAKI-1 renal = tested on: CAKI-1 renal
CCRF-CEM leukemia = tested on: CCRF-CEM leukemia
COLO 205 colon = tested on: COLO 205 colon
DLD-1 colon = tested on: DLD-1 colon
DMS 273 small cell lung = tested on: DMS 273 small cell lung
EKVX NSCLC = tested on: EKVX NSCLC
HCC-2998 colon = tested on: HCC-2998 colon
HCT-15 colon = tested on: HCT-15 colon
HL-60(TB) leukemia = tested on: HL-60(TB) leukemia
HOP-62 NSCLC = tested on: HOP-62 NSCLC
HOP-92 NSCLC = tested on: HOP-92 NSCLC
HT29 colon = tested on: HT29 colon
IGROV1 ovarian = tested on: IGROV1 ovarian
K-562 leukemia = tested on: K-562 leukemia
KM12 colon = tested on: KM12 colon
KM20L2 colon = tested on: KM20L2 colon
LOX IMVI melanoma = tested on: LOX IMVI melanoma
LXFL 529 NSCLC = tested on: LXFL 529 NSCLC
M14 melanoma = tested on: M14 melanoma
M19-MEL melanoma = tested on: M19-MEL melanoma
MALME-3M melanoma = tested on: MALME-3M melanoma
MOLT-4 leukemia = tested on: MOLT-4 leukemia
NCI-H23 lung = tested on: NCI-H23 lung
NCI-H460 lung = tested on: NCI-H460 lung
NCI-H522 lung = tested on: NCI-H522 lung
OVCAR-3 ovarian = tested on: OVCAR-3 ovarian
OVCAR-4 ovarian = tested on: OVCAR-4 ovarian
OVCAR-5 ovarian = tested on: OVCAR-5 ovarian
OVCAR-8 ovarian = tested on: OVCAR-8 ovarian
RPMI-8226 leukemia = tested on: RPMI-8226 leukemia
RXF 393 renal = tested on: RXF 393 renal
SF-268 CNS = tested on: SF-268 CNS
SF-295 CNS = tested on: SF-295 CNS
SF-539 CNS = tested on: SF-539 CNS
SK-MEL-2 melanoma = tested on: SK-MEL-2 melanoma
SK-MEL-28 melanoma = tested on: SK-MEL-28 melanoma
SK-MEL-5 melanoma = tested on: SK-MEL-5 melanoma
SK-OV-3 ovarian = tested on: SK-OV-3 ovarian
SN12C renal = tested on: SN12C renal
SNB-19 CNS = tested on: SNB-19 CNS
SNB-75 CNS = tested on: SNB-75 CNS
SNB-78 CNS = tested on: SNB-78 CNS
SW-620 colon = tested on: SW-620 colon
TK-10 renal = tested on: TK-10 renal
UACC-257 melanoma = tested on: UACC-257 melanoma
UACC-62 melanoma = tested on: UACC-62 melanoma
UO-31 renal = tested on: UO-31 renal
XF 498 CNS = tested on: XF 498 CNS
HCT-116 colon = tested on: HCT-116 colon
NCI-H226 lung = tested on: NCI-H226 lung
SR leukemia = tested on: SR leukemia
U251 CNS = tested on: U251 CNS
DMS 114 small cell lung = tested on: DMS 114 small cell lung
HOP-18 NSCLC = tested on: HOP-18 NSCLC

## CC1(c2ccc(Cl)cc2)C2C(=O)NC(=O)C1C(=O)NC2=O (stereo not drawn)
786-0 renal
  TGI: > 100 µM
A498 renal
  TGI: > 100 µM
A549 NSCLC
  TGI: > 100 µM
ACHN renal
  TGI: > 100 µM
CAKI-1 renal
  TGI: > 100 µM
CCRF-CEM leukemia
  TGI: > 100 µM
COLO 205 colon
  TGI: > 100 µM
DLD-1 colon
  TGI: > 100 µM
DMS 273 small cell lung
  TGI: > 100 µM
EKVX NSCLC
  TGI: > 100 µM
HCC-2998 colon
  TGI: > 100 µM
HCT-15 colon
  TGI: > 100 µM
HL-60(TB) leukemia
  TGI: > 100 µM
HOP-62 NSCLC
  TGI: > 100 µM
HOP-92 NSCLC
  TGI: > 100 µM
HT29 colon
  TGI: > 100 µM
IGROV1 ovarian
  TGI: > 100 µM
K-562 leukemia
  TGI: > 100 µM
KM12 colon
  TGI: > 100 µM
KM20L2 colon
  TGI: > 100 µM
LOX IMVI melanoma
  TGI: > 100 µM
LXFL 529 NSCLC
  TGI: > 100 µM
M14 melanoma
  TGI: > 100 µM
M19-MEL melanoma
  TGI: > 100 µM
MALME-3M melanoma
  TGI: > 100 µM
MOLT-4 leukemia
  TGI: > 100 µM
NCI-H23 lung
  TGI: > 100 µM
NCI-H460 lung
  TGI: > 100 µM
NCI-H522 lung
  TGI: > 100 µM
OVCAR-3 ovarian
  TGI: > 100 µM
OVCAR-4 ovarian
  TGI: > 100 µM
OVCAR-5 ovarian
  TGI: > 100 µM
OVCAR-8 ovarian
  TGI: > 100 µM
RPMI-8226 leukemia
  TGI: > 100 µM
RXF 393 renal
  TGI: > 100 µM
SF-268 CNS
  TGI: > 100 µM
SF-295 CNS
  TGI: > 100 µM
SF-539 CNS
  TGI: > 100 µM
SK-MEL-2 melanoma
  TGI: > 100 µM
SK-MEL-28 melanoma
  TGI: > 100 µM
SK-MEL-5 melanoma
  TGI: > 100 µM
SK-OV-3 ovarian
  TGI: > 100 µM
SN12C renal
  TGI: > 100 µM
SNB-19 CNS
  TGI: > 100 µM
SNB-75 CNS
  TGI: > 100 µM
SNB-78 CNS
  TGI: > 100 µM
SW-620 colon
  TGI: > 100 µM
TK-10 renal
  TGI: > 100 µM
UACC-257 melanoma
  TGI: > 100 µM
UACC-62 melanoma
  TGI: > 100 µM
UO-31 renal
  TGI: > 100 µM
XF 498 CNS
  TGI: > 100 µM

## COc1cccc(/C=N/[N-]C(N)=O)c1[O-].[Cu+2].[OH3+].c1ccc(-c2ccccn2)nc1
786-0 renal
  TGI: 36.6 µM
A498 renal
  TGI: 35.8 µM
A549 NSCLC
  TGI: > 100 µM
ACHN renal
  TGI: 98.9 µM
CAKI-1 renal
  TGI: 83.7 µM
CCRF-CEM leukemia
  TGI: > 95.6 µM
COLO 205 colon
  TGI: 55.4 µM
EKVX NSCLC
  TGI: > 78.2 µM
HCC-2998 colon
  TGI: > 100 µM
HCT-116 colon
  TGI: > 63 µM
HCT-15 colon
  TGI: > 100 µM
HL-60(TB) leukemia
  GI50: 40.6 µM
  TGI: > 79.1 µM
HOP-62 NSCLC
  TGI: > 67.7 µM
HOP-92 NSCLC
  TGI: 29.8 µM
HT29 colon
  TGI: > 100 µM
IGROV1 ovarian
  TGI: > 74.8 µM
K-562 leukemia
  TGI: 66 µM
KM12 colon
  TGI: > 100 µM
KM20L2 colon
  TGI: > 100 µM
LOX IMVI melanoma
  TGI: > 81.3 µM
M14 melanoma
  TGI: 74 µM
MALME-3M melanoma
  TGI: > 100 µM
MOLT-4 leukemia
  TGI: > 100 µM
NCI-H226 lung
  TGI: 88.1 µM
NCI-H23 lung
  TGI: 37.3 µM
NCI-H460 lung
  TGI: > 100 µM
NCI-H522 lung
  TGI: 28.4 µM
OVCAR-3 ovarian
  TGI: > 100 µM
OVCAR-4 ovarian
  TGI: 33.1 µM
OVCAR-5 ovarian
  TGI: > 100 µM
OVCAR-8 ovarian
  TGI: > 100 µM
RPMI-8226 leukemia
  TGI: > 100 µM
RXF 393 renal
  TGI: 40.8 µM
SF-268 CNS
  TGI: > 100 µM
SF-295 CNS
  TGI: > 100 µM
SF-539 CNS
  TGI: 67.7 µM
SK-MEL-2 melanoma
  TGI: 45.1 µM
SK-MEL-28 melanoma
  TGI: 41.2 µM
SK-MEL-5 melanoma
  TGI: 31.6 µM
SK-OV-3 ovarian
  TGI: 27.3 µM
SN12C renal
  TGI: > 96.8 µM
SNB-19 CNS
  TGI: 38.1 µM
SNB-75 CNS
  TGI: 33.9 µM
SR leukemia
  TGI: > 100 µM
SW-620 colon
  TGI: > 100 µM
TK-10 renal
  TGI: 42.9 µM
U251 CNS
  TGI: 31.3 µM
UACC-257 melanoma
  TGI: > 100 µM
UACC-62 melanoma
  TGI: 31.3 µM
UO-31 renal
  TGI: > 100 µM
XF 498 CNS
  GI50: 7.92 µM
  TGI: 19.9 µM

## O=P(O)(O)C1(P(=O)(O)O)CC1
786-0 renal
  TGI: > 100 µM
A498 renal
  TGI: > 100 µM
A549 NSCLC
  TGI: > 100 µM
ACHN renal
  TGI: > 100 µM
CAKI-1 renal
  TGI: > 100 µM
CCRF-CEM leukemia
  TGI: > 100 µM
COLO 205 colon
  TGI: > 100 µM
DMS 114 small cell lung
  TGI: > 100 µM
DMS 273 small cell lung
  TGI: > 100 µM
EKVX NSCLC
  TGI: > 100 µM
HCC-2998 colon
  TGI: > 100 µM
HCT-116 colon
  TGI: > 100 µM
HCT-15 colon
  TGI: > 100 µM
HOP-62 NSCLC
  TGI: > 100 µM
HT29 colon
  TGI: > 100 µM
IGROV1 ovarian
  TGI: > 100 µM
K-562 leukemia
  TGI: > 100 µM
KM12 colon
  TGI: > 100 µM
KM20L2 colon
  TGI: > 100 µM
LOX IMVI melanoma
  TGI: > 100 µM
LXFL 529 NSCLC
  TGI: > 100 µM
M14 melanoma
  TGI: > 100 µM
M19-MEL melanoma
  TGI: > 100 µM
MALME-3M melanoma
  TGI: > 100 µM
MOLT-4 leukemia
  TGI: > 100 µM
NCI-H226 lung
  TGI: > 100 µM
NCI-H23 lung
  TGI: > 100 µM
NCI-H460 lung
  TGI: > 100 µM
NCI-H522 lung
  TGI: > 100 µM
OVCAR-3 ovarian
  TGI: > 100 µM
OVCAR-4 ovarian
  TGI: > 100 µM
OVCAR-5 ovarian
  TGI: > 100 µM
OVCAR-8 ovarian
  TGI: > 100 µM
RPMI-8226 leukemia
  TGI: > 100 µM
RXF 393 renal
  TGI: > 100 µM
SF-268 CNS
  TGI: > 100 µM
SF-295 CNS
  TGI: > 100 µM
SF-539 CNS
  TGI: > 100 µM
SK-MEL-2 melanoma
  TGI: > 100 µM
SK-MEL-28 melanoma
  TGI: > 100 µM
SK-MEL-5 melanoma
  TGI: > 100 µM
SK-OV-3 ovarian
  TGI: > 100 µM
SN12C renal
  TGI: > 100 µM
SNB-19 CNS
  TGI: > 100 µM
SNB-75 CNS
  TGI: > 100 µM
SNB-78 CNS
  TGI: > 100 µM
SW-620 colon
  TGI: > 100 µM
TK-10 renal
  TGI: > 100 µM
U251 CNS
  TGI: > 100 µM
UACC-257 melanoma
  TGI: > 100 µM
UACC-62 melanoma
  TGI: > 100 µM
UO-31 renal
  TGI: > 100 µM
XF 498 CNS
  TGI: > 100 µM

## Cc1cc(=O)[nH]c(NN2C(Cl)C(=O)C2c2cccc(Cl)c2)n1 (stereo not drawn)
A549 NSCLC
  TGI: > 100 µM
ACHN renal
  TGI: > 100 µM
CCRF-CEM leukemia
  TGI: 41.7 µM
DMS 114 small cell lung
  TGI: 54.8 µM
DMS 273 small cell lung
  TGI: 33.9 µM
EKVX NSCLC
  TGI: > 100 µM
HCC-2998 colon
  TGI: 98.9 µM
HCT-15 colon
  TGI: 40.9 µM
HL-60(TB) leukemia
  TGI: 40.4 µM
HOP-18 NSCLC
  TGI: 55.2 µM
HOP-62 NSCLC
  TGI: > 100 µM
HOP-92 NSCLC
  TGI: 41.5 µM
HT29 colon
  TGI: 76.8 µM
IGROV1 ovarian
  TGI: 37.1 µM
K-562 leukemia
  TGI: 65.8 µM
KM12 colon
  TGI: 67 µM
KM20L2 colon
  TGI: > 100 µM
LOX IMVI melanoma
  TGI: 32.8 µM
M14 melanoma
  TGI: 35.4 µM
M19-MEL melanoma
  TGI: > 100 µM
MOLT-4 leukemia
  TGI: 40.7 µM
NCI-H23 lung
  TGI: 58.2 µM
NCI-H460 lung
  TGI: 43.2 µM
OVCAR-3 ovarian
  TGI: 51.1 µM
OVCAR-4 ovarian
  TGI: 97 µM
OVCAR-5 ovarian
  TGI: > 100 µM
OVCAR-8 ovarian
  TGI: > 100 µM
RPMI-8226 leukemia
  TGI: 34.8 µM
RXF 393 renal
  TGI: 23.2 µM
SF-268 CNS
  TGI: 98.1 µM
SF-539 CNS
  TGI: 39.4 µM
SK-MEL-2 melanoma
  TGI: 35.8 µM
SK-MEL-28 melanoma
  TGI: > 100 µM
SK-MEL-5 melanoma
  TGI: 34.2 µM
SN12C renal
  TGI: 62 µM
SNB-19 CNS
  TGI: 92.6 µM
SNB-75 CNS
  TGI: 62.8 µM
SNB-78 CNS
  TGI: 79.3 µM
SR leukemia
  TGI: 44.3 µM
SW-620 colon
  TGI: > 100 µM
TK-10 renal
  TGI: > 100 µM
U251 CNS
  TGI: > 100 µM
UACC-257 melanoma
  TGI: > 100 µM
UACC-62 melanoma
  TGI: 87.2 µM
UO-31 renal
  TGI: 87.6 µM
